# Results from US8273759B2, “Fungicide heterocyclyl-pyrimidinyl-amino derivatives” (Bayer Cropscience AG, priority 2007, dated 2012).
# Tested on: not listed separately
# Assay: log P by reversed-phase HPLC (EEC Directive 79/831 Annex V.A8)
# Assay type: physicochemical
# Conditions: reversed-phase C 18, 40° C., 0.1% aqueous formic acid and acetonitrile gradient
# Experimental: Temperature: 40° C.; Mobile phases: 0.1% aqueous formic acid and acetonitrile; linear gradient from 10% acetonitrile to 90% acetonitrile.
row,Compound,log PHCOOH
1,COc1ccc(Nc2nccc(-c3ccnc(N(C)C)c3)n2)cn1 [Compound 1],1.24
2,CCC(CO)Nc1cc(-c2ccnc(Nc3ccc(OC)nc3)n2)ccn1 (stereo not shown) [Compound 2],1.35
3,c1cc(Nc2nccc(-c3ccnc(NC4CCC4)c3)n2)nc(NC2CCC2)c1 [Compound 3],1.12
4,c1cc(Nc2nccc(-c3ccnc(NC4CCCCC4)c3)n2)nc(NC2CCCCC2)c1 [Compound 4],1.70
5,c1cc(Nc2nccc(-c3ccnc(NCC4CC4)c3)n2)cc(NCC2CC2)n1 [Compound 5],0.97
6,COCCCNc1cc(-c2ccnc(Nc3cccc(NCCCOC)n3)n2)ccn1 [Compound 6],0.83
7,c1cc(NCC2CCCO2)nc(Nc2nccc(-c3ccnc(NCC4CCCO4)c3)n2)c1 (stereo not shown) [Compound 7],0.86
8,Clc1cc(Nc2nccc(-c3ccnc(NC4CCCCC4)c3)n2)ccn1 [Compound 8],1.64
9,CC(C)C(C)Nc1cc(-c2ccnc(Nc3ccnc(Cl)c3)n2)ccn1 (stereo not shown) [Compound 10],1.66
10,Clc1cc(Nc2nccc(-c3ccnc(NC4CCC4)c3)n2)ccn1 [Compound 11],1.45
11,CCCC(C)Nc1cc(-c2ccnc(Nc3ccnc(Cl)c3)n2)ccn1 (stereo not shown) [Compound 12],1.72
12,CCC(CC)Nc1cc(-c2ccnc(Nc3ccnc(Cl)c3)n2)ccn1 [Compound 13],1.64
13,Clc1cc(Nc2nccc(-c3ccnc(NC4CCCC4)c3)n2)ccn1 [Compound 14],1.58
14,c1cc(Nc2nccc(-c3ccnc(NC4CCCCC4)c3)n2)cc(NC2CCCCC2)n1 [Compound 15],1.52
15,c1cc(NCC2CC2)nc(Nc2nccc(-c3ccnc(NCC4CC4)c3)n2)c1 [Compound 16],0.96
16,CCCCCNc1cc(Nc2nccc(-c3ccnc(NCCCCC)c3)n2)ccn1 [Compound 17],1.57
17,CC(C)C(C)Nc1cc(Nc2nccc(-c3ccnc(NC(C)C(C)C)c3)n2)ccn1 (stereo not shown) [Compound 18],1.34
18,c1cc(Nc2nccc(-c3ccnc(NC4CCC4)c3)n2)cc(NC2CCC2)n1 [Compound 19],1.05
19,CCCC(C)Nc1cc(Nc2nccc(-c3ccnc(NC(C)CCC)c3)n2)ccn1 (stereo not shown) [Compound 20],1.43

row,Compound,log PHCOOH
1,CCC(CC)Nc1cc(Nc2nccc(-c3ccnc(NC(CC)CC)c3)n2)ccn1 [Compound 21],1.33
2,c1cc(Nc2nccc(-c3ccnc(NC4CCCC4)c3)n2)cc(NC2CCCC2)n1 [Compound 22],1.22
3,CCC(C)Nc1cc(Nc2nccc(-c3ccnc(NC(C)CC)c3)n2)ccn1 (stereo not shown) [Compound 23],1.10
4,CCC(CC)Nc1cc(-c2ccnc(Nc3cccc(Cl)n3)n2)ccn1 [Compound 24],2.09
5,CCC(C)Nc1cc(-c2ccnc(Nc3cccc(Cl)n3)n2)ccn1 (stereo not shown) [Compound 25],2.00
6,CC(C)C(C)Nc1cc(-c2ccnc(Nc3cccc(Cl)n3)n2)ccn1 (stereo not shown) [Compound 26],2.15
7,Clc1cccc(Nc2nccc(-c3ccnc(NCC4CCCO4)c3)n2)n1 (stereo not shown) [Compound 27],1.64
8,CC(CN(C)C)Nc1cc(-c2ccnc(Nc3cccc(Cl)n3)n2)ccn1 (stereo not shown) [Compound 28],1.42
9,CCC(COC)Nc1cc(-c2ccnc(Nc3cccc(Cl)n3)n2)ccn1 (stereo not shown) [Compound 29],1.85
10,CCC(CC)Nc1cc(-c2ccnc(Nc3cccc(NC(CC)CC)n3)n2)ccn1 [Compound 30],1.47
11,c1cc(Nc2nccc(-c3ccnc(NC4CCCC4)c3)n2)nc(NC2CCCC2)c1 [Compound 31],1.23
12,CCC(C)Nc1cc(-c2ccnc(Nc3cccc(NC(C)CC)n3)n2)ccn1 (stereo not shown) [Compound 32],1.23
13,CC(C)C(C)Nc1cc(-c2ccnc(Nc3cccc(NC(C)C(C)C)n3)n2)ccn1 (stereo not shown) [Compound 33],1.43
14,CCC(COC)Nc1cc(Nc2nccc(-c3ccnc(NC(CC)COC)c3)n2)ccn1 (stereo not shown) [Compound 34],1.10
15,COCC(C)Nc1cc(-c2ccnc(Nc3ccnc(Cl)c3)n2)ccn1 (stereo not shown) [Compound 35],1.34
16,COc1ccc(Nc2nccc(-c3ccnc(NC4COC4)c3)n2)cn1 [Compound 36],1.10
17,COCC(C)Nc1cc(-c2ccnc(Nc3ccc(OC)nc3)n2)ccn1 (stereo not shown) [Compound 38],1.29
18,CCC(C)Nc1cc(-c2ccnc(Nc3ccc(OC)nc3)n2)ccn1 (stereo not shown) [Compound 39],1.48
19,COc1ccc(Nc2nccc(-c3ccnc(NCC(C)C)c3)n2)cn1 [Compound 46],1.42

# Same assay, conditions: reversed-phase C18 HPLC column, reversed-phase C 18, 40° C., 0.1% aqueous formic acid and acetonitrile gradient, read-out: log PHCOOH
row,Compound,chromatographic logP
1,"CCC(COC)Nc1cc(-c2ccnc(Nc3ccnc(Cl)c3)n2)ccn1 (stereo not shown) [Compound 9, N-(2-chloropyridin-4-yl)-4-(2-{[1-(methoxymethyl)propyl]amino}pyridin-4-yl)pyrimidin-2-amine]",1.37

# Tested on: Pyricularia grisea
# Assay: not given
# Assay type: in vivo
# Conditions: 500 ppm; rice plants sprayed 24 hours before contamination; grading 6 days after contamination
row,Compound,"protection (good, at least 70%, or total), % of efficacy"
1,"CCC(COC)Nc1cc(-c2ccnc(Nc3ccnc(Cl)c3)n2)ccn1 (stereo not shown) [Compound 9, N-(2-chloropyridin-4-yl)-4-(2-{[1-(methoxymethyl)propyl]amino}pyridin-4-yl)pyrimidin-2-amine]",at least 70%
